In PubChem BioAssay AID248 (DTP/NCI, 2004):
Several values for one entry are separate records, joined by “and”; a condition that tells them apart may be missing. Equal values may be shown once. Inconclusive results and toxic doses are left out.

Test system: L1210 leukemia ip in BDF1 mice, survival T/C
Assay: NCI In Vivo Anticancer Drug Screen. Data for tumor model L1210 Leukemia (intraperitoneal) in B6D2F1 (BDF1) mice
Conditions: endpoint: mean survival time, higher = longer survival
How it was run: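 Read-out is survival time, reported as the treated-group measurement over the vehicle-control measurement.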

[1] = dose: 100.0 mg/kg/injection, schedule: Q01DX001 (ip), vehicle: Klucel (hydroxypropylcellulose) (HPC)
[2] = dose: 100.0 mg/kg/injection, schedule: Q04DX003 (ip), vehicle: Klucel (hydroxypropylcellulose) (HPC)
[3] = dose: 200.0 mg/kg/injection, schedule: Q01DX001 (ip), vehicle: Klucel (hydroxypropylcellulose) (HPC)
[4] = dose: 200.0 mg/kg/injection, schedule: Q04DX003 (ip), vehicle: Klucel (hydroxypropylcellulose) (HPC)
[5] = dose: 100.0 mg/kg/injection, schedule: Q04DX002 (ip), vehicle: Klucel (hydroxypropylcellulose) (HPC)
[6] = dose: 200.0 mg/kg/injection, schedule: Q04DX002 (ip), vehicle: Klucel (hydroxypropylcellulose) (HPC)
[7] = dose: 400.0 mg/kg/injection, schedule: Q04DX002 (ip), vehicle: Klucel (hydroxypropylcellulose) (HPC)
[8] = dose: 100.0 mg/kg/injection, schedule: Q01DX009 (ip), vehicle: saline with Tween-80
[9] = dose: 100.0 mg/kg/injection, schedule: Q04DX003 (ip), vehicle: saline with Tween-80
[10] = dose: 200.0 mg/kg/injection, schedule: Q04DX003 (ip), vehicle: saline with Tween-80
[11] = dose: 100.0 mg/kg/injection, schedule: Q01DX001 (ip), vehicle: other
[12] = dose: 200.0 mg/kg/injection, schedule: Q01DX001 (ip), vehicle: other
[13] = dose: 400.0 mg/kg/injection, schedule: Q01DX001 (ip), vehicle: other
[14] = dose: 100.0 mg/kg/injection, schedule: Q01DX001 (ip), vehicle: carboxymethylcellulose (CMC)
[15] = dose: 200.0 mg/kg/injection, schedule: Q01DX001 (ip), vehicle: carboxymethylcellulose (CMC)
[16] = dose: 400.0 mg/kg/injection, schedule: Q01DX001 (ip), vehicle: carboxymethylcellulose (CMC)
[17] = dose: 100.0 mg/kg/injection, schedule: Q01DX001 (ip), vehicle: saline with Tween-80
[18] = dose: 200.0 mg/kg/injection, schedule: Q01DX001 (ip), vehicle: saline with Tween-80
[19] = dose: 400.0 mg/kg/injection, schedule: Q01DX001 (ip), vehicle: saline with Tween-80
[20] = dose: 100.0 mg/kg/injection, schedule: Q04DX003 (ip), vehicle: saline
[21] = dose: 200.0 mg/kg/injection, schedule: Q04DX003 (ip), vehicle: saline
[22] = dose: 400.0 mg/kg/injection, schedule: Q04DX003 (ip), vehicle: saline

O=C(Nc1ccc(C2=NCCN2)cc1)c1cc(C(=O)Nc2ccc(C3=NCCN3)cc2)cc(C(=O)Nc2ccc(C3=NCCN3)cc2)c1
T/C (dose: 4.3 mg/kg/injection, schedule: Q01DX Z (ip), vehicle: saline): 95 % of control | T/C (dose: 6.4 mg/kg/injection, schedule: Q01DX Z (ip), vehicle: saline): 93 % of control | T/C (dose: 9.7 mg/kg/injection, schedule: Q01DX Z (ip), vehicle: saline): 97 % of control and 92 % of control | T/C (dose: 15.0 mg/kg/injection, schedule: Q01DX Z (ip), vehicle: saline): 92 % of control | T/C (dose: 22.0 mg/kg/injection, schedule: Q01DX Z (ip), vehicle: saline): 88 % of control | T/C (dose: 33.0 mg/kg/injection, schedule: Q01DX Z (ip), vehicle: saline): 97 % of control | T/C (dose: 111.0 mg/kg/injection, schedule: Q01DX Z (ip), vehicle: saline): 93 % of control | T/C (dose: 166.0 mg/kg/injection, schedule: Q01DX Z (ip), vehicle: saline): 90 % of control | T/C (dose: 250.0 mg/kg/injection, schedule: Q01DX Z (ip), vehicle: saline): 87 % of control | T/C (dose: 375.0 mg/kg/injection, schedule: Q01DX Z (ip), vehicle: saline): 88 % of control

CCOC(=O)CCc1c[nH]c(C)c1C(=O)C(=O)OCC
T/C [1]: 95 % of control | T/C [2]: 93 % of control | T/C [3]: 98 % of control | T/C [4]: 102 % of control | T/C (dose: 400.0 mg/kg/injection, schedule: Q01DX001 (ip), vehicle: Klucel (hydroxypropylcellulose) (HPC)): 95 % of control | T/C (dose: 400.0 mg/kg/injection, schedule: Q04DX003 (ip), vehicle: Klucel (hydroxypropylcellulose) (HPC)): 96 % of control

Cc1ccc(NC(=S)N(CCC#N)C2CCCCC2)cc1C
T/C [5]: 97 % of control | T/C [6]: 90 % of control | T/C [7]: 90 % of control

CCOc1ccc(/C=N/NC(C)=O)cc1OC
T/C (dose: 50.0 mg/kg/injection, schedule: Q01DX009 (ip), vehicle: saline with Tween-80): 95 % of control | T/C [8]: 101 % of control

Cc1ccc(C)c(N2C(=O)C(=O)N(c3cc(C)ccc3C)P2(=O)N(CCCl)CCCl)c1
T/C (dose: 18.0 mg/kg/injection, schedule: Q01DX Z (ip), vehicle: carboxymethylcellulose (CMC)): 101 % of control | T/C (dose: 36.0 mg/kg/injection, schedule: Q01DX Z (ip), vehicle: carboxymethylcellulose (CMC)): 90 % of control | T/C (dose: 72.0 mg/kg/injection, schedule: Q01DX Z (ip), vehicle: carboxymethylcellulose (CMC)): 93 % of control | T/C (dose: 145.0 mg/kg/injection, schedule: Q01DX Z (ip), vehicle: carboxymethylcellulose (CMC)): 96 % of control

Cc1cc(C)c(S(=O)(=O)NN)c(C)c1
T/C [9]: 94 % of control | T/C [10]: 90 % of control

CC1CC2(CCC1=O)OCCO2 (stereo not given)
T/C [11]: 95 % of control | T/C [12]: 95 % of control | T/C [13]: 96 % of control

CCOC(=O)C1(C(=O)OCC)CCC2Nc3ccccc3C(=O)N21 (stereo not given)
T/C (dose: 50.0 mg/kg/injection, schedule: Q04DX003 (ip), vehicle: Klucel (hydroxypropylcellulose) (HPC)): 99 % of control | T/C [2]: 101 % of control | T/C [4]: 87 % of control

CS(=O)(=O)n1c(C(O)c2ccccc2)nc2ccccc21 (stereo not given)
T/C [14]: 100 % of control | T/C [15]: 94 % of control | T/C [16]: 89 % of control

CCOC(=O)C(C)(C)Oc1ccc(O)cc1
T/C [17]: 105 % of control | T/C [18]: 105 % of control | T/C [19]: 97 % of control

COC(=O)c1cc2c(cc1[N+](=O)[O-])OCO2
T/C [5]: 114 % of control | T/C [6]: 114 % of control | T/C [7]: 95 % of control

COc1ccccc1NCc1cccc([N+](=O)[O-])c1
T/C (dose: 100.0 mg/kg/injection, schedule: Q01DX009 (ip), vehicle: Klucel (hydroxypropylcellulose) (HPC)): 100 % of control | T/C [20]: 100 % of control | T/C (dose: 200.0 mg/kg/injection, schedule: Q01DX009 (ip), vehicle: Klucel (hydroxypropylcellulose) (HPC)): 94 % of control | T/C [21]: 94 % of control | T/C [22]: 86 % of control

CCCCC(CC1CCCCC1)C(=O)O (stereo not given)
T/C [17]: 91 % of control | T/C [18]: 95 % of control | T/C [19]: 88 % of control

O=C(O)C1C2CCC(C2)C1C(=O)O (stereo not given)
T/C [9]: 90 % of control | T/C [20]: 100 % of control | T/C [10]: 98 % of control | T/C [21]: 100 % of control | T/C (dose: 400.0 mg/kg/injection, schedule: Q04DX003 (ip), vehicle: saline with Tween-80): 102 % of control | T/C [22]: 105 % of control

CCCCCOC(=O)c1ccccc1C(=O)OCCCCC
T/C (dose: 50.0 mg/kg/injection, schedule: Q01DX001 (ip), vehicle: Klucel (hydroxypropylcellulose) (HPC)): 103 % of control | T/C [1]: 110 % of control | T/C [3]: 104 % of control

O=C(O)C1(O)c2cc(Br)ccc2-c2ccc(Br)cc21
T/C (dose: 50.0 mg/kg/injection, schedule: Q01DX001 (ip), vehicle: carboxymethylcellulose (CMC)): 100 % of control | T/C [14]: 97 % of control | T/C [15]: 100 % of control | T/C [16]: 92 % of control

CC(C)=NNCCO
T/C (dose: 12.5 mg/kg/injection, schedule: Q01DX001 (ip), vehicle: saline): 103 % of control | T/C (dose: 25.0 mg/kg/injection, schedule: Q01DX001 (ip), vehicle: saline): 103 % of control | T/C (dose: 50.0 mg/kg/injection, schedule: Q01DX001 (ip), vehicle: saline): 100 % of control

C[n+]1ccc(NC(=O)c2ccc(NC(=O)c3ccc(C(=O)Nc4ccc(C(=O)Nc5cc[n+](C)cc5)cc4)cc3)cc2)cc1
T/C (dose: 62.0 mg/kg/injection, schedule: Q01DX Z (ip), vehicle: carboxymethylcellulose (CMC)): 103 % of control | T/C [11]: 97 % of control | T/C [8]: 105 % of control | T/C (dose: 100.0 mg/kg/injection, schedule: Q04DX003 (ip), vehicle: other): 101 % of control | T/C (dose: 125.0 mg/kg/injection, schedule: Q01DX Z (ip), vehicle: carboxymethylcellulose (CMC)): 118 % of control | T/C [12]: 104 % of control | T/C (dose: 200.0 mg/kg/injection, schedule: Q01DX009 (ip), vehicle: saline with Tween-80): 115 % of control | T/C (dose: 200.0 mg/kg/injection, schedule: Q04DX003 (ip), vehicle: other): 103 % of control | T/C [13]: 103 % of control | T/C (dose: 400.0 mg/kg/injection, schedule: Q01DX009 (ip), vehicle: saline with Tween-80): 114 % of control | T/C (dose: 400.0 mg/kg/injection, schedule: Q04DX003 (ip), vehicle: other): 98 % of control | T/C (dose: 500.0 mg/kg/injection, schedule: Q01DX Z (ip), vehicle: carboxymethylcellulose (CMC)): 152 % of control

O=S(c1ccccc1)c1ccccc1
T/C (dose: 75.0 mg/kg/injection, schedule: Q01DX009 (ip), vehicle: Klucel (hydroxypropylcellulose) (HPC)): 98 % of control | T/C [5]: 102 % of control | T/C (dose: 150.0 mg/kg/injection, schedule: Q01DX009 (ip), vehicle: Klucel (hydroxypropylcellulose) (HPC)): 102 % of control | T/C [6]: 98 % of control | T/C (dose: 300.0 mg/kg/injection, schedule: Q01DX009 (ip), vehicle: Klucel (hydroxypropylcellulose) (HPC)): 95 % of control | T/C [7]: 112 % of control

CC1(C)OC2C(CNCCO)OC(OCc3ccccc3)C2O1 (stereo not given)
T/C (dose: 50.0 mg/kg/injection, schedule: Q04DX003 (ip), vehicle: saline): 102 % of control | T/C [20]: 94 % of control | T/C [21]: 88 % of control

O=C1NCN(CCO)CN1
T/C [20]: 95 % of control | T/C [21]: 91 % of control | T/C [22]: 98 % of control
